Patent US9168286B2, “Methods and compositions for use in treatment of patients with autoantibody positive disease” (Human Genome Sciences, Inc., priority 2005, dated 2015)

System: subjects with RA
Assay: Phase 2 clinical trial of belimumab in rheumatoid arthritis: biomarkers
Format: in vivo, human
Text: ACR20 response increased to approximately 40% at Week 48.

**Q.** “belimumab: an antibody that neutralizes Neutrokine-alpha protein” was tested. Which Effects on biomarkers (continued treatment in the extension period) did it give?
**A.** Its Effects on biomarkers is “increased or were sustained”.

**Q.** And the “CD20+ B-cells” value (human, in vivo)?
**A.** Its value is “statistically significant reductions”.

**Q.** And the “RF (rheumatoid factor)” value (human, in vivo)?
**A.** The value was “statistically significant reductions”.

**Q.** What about the “activated B-cells” value (human, in vivo) of the same substance?
**A.** Its value is “statistically significant reductions”.

**Q.** And the memory cells (human, in vivo)?
**A.** The memory cells was “increased within first month of treatment and slowly declined with continued treatment”.

**Q.** What about the “naïve B-cells” value (human, in vivo) of the same substance?
**A.** The value was “statistically significant reductions”.
